Experimental data from PubChem BioAssay AID1919 (The Scripps Research Institute Molecular Screening Center, 2009).
Active and inactive are the calls of the source.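 The calls were made as follows: active = IC50 against the VIM-2 bacterial beta-lactamase enzyme at or below a set limit; inactive = IC50 above that set limit.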

These compounds were tested against VIM-2 metallo-beta-lactamase (Pseudomonas aeruginosa) (UniProt Q932Y6) (assay: concentration-dependent VIM-2 enzyme inhibition – biochemical, epi-absorbance readout, selective inhibitors, dose response (AID 1919)). Conditions: purified VIM-2, nitrocefin hydrolysis, epi-absorbance fluorescence.

Compound	IC50
CCOC(=O)c1[nH]c(C(=O)O)c(CCC(=O)OC)c1C	inactive
CC(=O)c1ccc(-c2ccc(Cn3c(C)nc4cc(N)c(C)nc43)cc2)cc1	> 59.6 µM (inactive)
O=C(CCN1C(=O)/C(=C/c2ccccc2F)SC1=S)NCCCn1ccnc1	6.45 µM
CSC[C@H](NC(=O)COc1cc2c(c3oc(=O)c(C)c(C)c13)CCC(C)(C)O2)C(=O)O	inactive
O=P(O)(O)c1ccccc1OCc1ccccc1	2.44 µM
Cc1cc(=O)oc2c3c(cc(OCC(=O)N[C@@H](Cc4ccccc4)C(=O)O)c12)OC(C)(C)CC3	inactive
CCOC(=O)N=S(N)(=O)c1ccccc1 (stereo not drawn)	inactive
Cc1cccc(C(=O)Nc2nnc(SCC(=O)NCc3ccco3)s2)c1	> 59.6 µM (inactive)
CCN(CC)C(=O)CSc1nc2ccc(NC(=O)CSc3nccn3C)cc2s1	inactive
O=C(O)c1[nH]c2ccc(Br)cc2c1CCN1C(=O)c2cccc([N+](=O)[O-])c2C1=O	1.98 µM
O=C(CSc1nnc(NC(=O)c2ccccc2F)s1)NCc1ccc(F)cc1	inactive
O=c1[nH]c(SCc2n[nH]c(=S)n2-c2ccccc2)nc2sc3c(c12)CCC3	> 59.6 µM (inactive)
CC1CCCCC1n1c(-c2cccnc2)n[nH]c1=S (stereo not drawn)	inactive
C=C(C)Cn1c(-c2cccs2)n[nH]c1=S	5.07 µM
COc1ccc2[nH]c(C(=O)O)c(CCN3C(=O)c4ccc(C(=O)O)cc4C3=O)c2c1	1.43 µM
CC(C)(C)c1ccc(COc2ccsc2C(=O)O)cc1	inactive
O=C(O)c1[nH]c2ccc(Cl)cc2c1CCN1C(=O)c2ccccc2C1=O	1.29 µM
S=c1[nH]nc(-c2ccccc2)n1C1C=CCCC1 (stereo not drawn)	inactive
CCn1c(-c2nn(-c3ccccc3)ccc2=O)n[nH]c1=S	inactive
Cc1c(Cl)c(-c2n[nH]c(=S)n2-c2ccc(F)cc2)nn1C	inactive
O=C(CSc1nnc(NC(=O)c2ccccc2[N+](=O)[O-])s1)NCc1ccco1	6.93 µM
O=C(c1ccco1)N1N=C(c2ccc(Cl)cc2)CC1c1ccco1 (stereo not drawn)	7.31 µM
O=C(CSc1nnc(NC(=O)c2ccccc2)s1)NCc1ccco1	> 59.6 µM (inactive)
Cn1ccnc1SCC(=O)Nc1ccc2nc(SCC(=O)NC3CC3)sc2c1	inactive
Cc1cc(C(=O)OCC(=O)NC(=O)c2cccn2C)c2ccccc2n1	> 59.6 µM (inactive)
S=c1[nH]nc(-c2ccco2)n1Cc1ccccc1	6.48 µM

Compound	IC50
COCC(=O)Nc1nnc(SCC(=O)NCc2cccs2)s1	9.67 µM
O=C(CSc1nnc(NC(=O)c2cc(Br)ccc2Cl)s1)NCC1CCCO1 (stereo not drawn)	inactive
O=C(O)c1c(C(=O)O)c(-c2ccc(Br)cc2)n2c1CSC2	4.78 µM
O=c1[nH]c2c(s1)C(c1cccnc1)C1C3CCC(C3)C1S2 (stereo not drawn)	0.0544 µM
Cn1c(-c2sccc2OCc2ccccc2)n[nH]c1=S	5.45 µM
Fc1ccccc1-c1n[nH]c(=S)n1Cc1ccccc1	inactive
COCC(C)NC(=O)c1cc2cccc([N+](=O)[O-])c2[nH]1 (stereo not drawn)	inactive
COc1ccc(-c2cc(C(F)(F)F)nc(N3CCN(C)CC3)n2)cc1	> 59.6 µM (inactive)
CCCCn1c(-c2ccoc2C)n[nH]c1=S	inactive
C=C(c1cccc2ccccc12)P(=O)(O)O	6.81 µM
Cc1c(C)c2ccc(OCC(=O)N3CCC[C@@H]3C(=O)O)c(C)c2oc1=O	6.07 µM
Cc1ccc(-c2n[nH]c(=S)n2-c2ccccc2)cc1	> 59.6 µM (inactive)
O=C(CSc1nnc(NC(=O)C2CCCCC2)s1)NCc1ccco1	6.64 µM
CSc1nc(SCC(=O)O)c2c3c(sc2n1)COC(C)(C)C3	inactive
COc1cc2c(cc1OC)C(C)N(C(=O)c1nccnc1C(=O)O)CC2 (stereo not drawn)	inactive
CC(C)Cn1c(-c2ccco2)n[nH]c1=S	inactive
CCCc1cc(=O)oc2c3c(cc(OCC(=O)N4CCC[C@H]4C(=O)O)c12)OC(C)(C)CC3	6.62 µM
NC(=O)SCC(=O)Nc1ccccc1C(=O)O	inactive
Cc1ccc(S(=O)(=O)n2[nH]c(=O)cc2NC(=O)c2cccs2)cc1	0.453 µM
O=[N+]([O-])c1ccc(-c2ccccc2)c([As](=O)(O)O)c1	0.748 µM
C=CCn1c(C2CC2)n[nH]c1=S	inactive
CC(C)(C)c1ccc(-c2n[nH]c(=S)n2CCCN2CCOCC2)cc1	inactive
CCCn1c(C(C)C)n[nH]c1=S	inactive
Cc1cccc(C2c3[nH]c4ccccc4c3CCN2C(=O)c2cc(CC(C)C)[nH]c(=O)n2)n1 (stereo not drawn)	7.93 µM
S=c1[nH]nc(-c2ccccc2)n1Cc1ccccc1	inactive
COc1ccc(-c2n[nH]c(=S)n2-c2ccc3c(c2)OCCO3)cc1OC	inactive

Compound	IC50
S=c1[nH]nc(-c2ccccc2)n1CC1CCCO1 (stereo not drawn)	inactive
CCCC(=O)Nc1nnc(SCC(=O)NCc2cccs2)s1	inactive
S=c1[nH]nc(-c2cccs2)n1C1CCCCC1	6.69 µM
Cc1ccccc1C(=O)Nc1nnc(SCC(=O)NCc2ccco2)s1	3.01 µM
Cc1c(OCC(=O)N2CCC[C@@H]2C(=O)O)ccc2c3c(c(=O)oc12)CCC3	inactive
O=c1c2ccccc2cnn1Cc1n[nH]c(=S)n1C1CC2CCC1C2 (stereo not drawn)	inactive
Cc1n[nH]c(C)c1CCCCOc1ccc([N+](=O)[O-])cc1	inactive
CCCCn1c(-c2nn(C)cc2Cl)n[nH]c1=S	4.2 µM
COc1cccc(-n2c(CNC(=O)OC(C)(C)C)n[nH]c2=S)c1	inactive
O=P(O)(O)c1ccccc1OCCCCCOc1ccccc1P(=O)(O)O	2.4 µM
CCCCn1c(-c2nn(C)c(C)c2Cl)n[nH]c1=S	5.37 µM
O=C1Nc2cc(C(=O)N3CCC(N4CCCCC4)CC3)ccc2S/C1=C\c1ccccc1	inactive
O=C(O)CC/C(=C\c1cc([N+](=O)[O-])ccc1Cl)c1nc2ccccc2s1	inactive
O=C(CSc1nnc(NC(=O)c2cccc(F)c2)s1)NCc1ccco1	> 59.6 µM (inactive)
Cc1c(C)c2c(OCC(=O)N[C@@H](C)C(=O)O)cc3c(c2oc1=O)CCC(C)(C)O3	4.44 µM
O=C(O)c1ccccc1Sc1ncnc2sc3c(c12)CCC3	inactive
Cc1nn(CCc2n[nH]c(=S)n2-c2cccc(Cl)c2)c(C)c1[N+](=O)[O-]	inactive
CC1=C(C(=O)O)N2C(=O)C(NC(=O)c3nn(C)cc3[N+](=O)[O-])C2SC1 (stereo not drawn)	inactive
O=C(O)c1ccccc1C(=O)c1cccc2ccccc12	inactive
S=c1[nH]nc(Cn2c(-c3ccccn3)nc3ccccc32)n1-c1ccc2c(c1)OCCO2	inactive
Cc1cc(OCc2cc(C(=O)O)oc2C)c2c3c(c(=O)oc2c1)CCCC3	1.49 µM
CCCCc1cc(=O)oc2c3c(cc(OCC(=O)N4CCC[C@H]4C(=O)O)c12)OC(C)(C)CC3	inactive
COc1ccccc1-c1n[nH]c(=S)n1Cc1ccco1	inactive
Cc1cccc(-n2c(C)n[nH]c2=S)c1C	> 59.6 µM (inactive)
Cc1cc(OCC(=O)N2CCC[C@@H]2C(=O)O)c2c(C)c(C)c(=O)oc2c1	inactive
CC(C)(C)C(=O)Nc1nnc(SCC(=O)NCc2cccs2)s1	2.62 µM

Compound	IC50
O=C(O)Cn1cccc1C(=O)c1ccccc1	inactive
COc1ccccc1-n1c(-c2ccco2)n[nH]c1=S	inactive
Cc1cc(C)n(-c2nc(SCC(=O)O)c3c4c(sc3n2)COC(C)(C)C4)n1	inactive
Cc1c(C)c2c(OCC(=O)N3CCC[C@H]3C(=O)O)cc3c(c2oc1=O)CCC(C)(C)O3	1.73 µM
S=c1[nH]nc(C2CC2)n1Cc1ccco1	9.32 µM
CC(C)(C)CC(=O)Nc1nnc(SCC(=O)NCc2cccs2)s1	inactive
COc1ccccc1C(=O)Nc1nnc(SCC(=O)NCc2ccco2)s1	6.48 µM
O=C(CSc1nnc(NC(=O)c2c(F)cccc2F)s1)NCc1ccccc1	9.26 µM
S=c1[nH]nc(-c2cccs2)n1Cc1ccccc1	4.09 µM
CCc1cc(=O)oc2c(C)c(OCC(=O)N3CCC[C@@H]3C(=O)O)ccc12	inactive
O=C(O)C(NC(=O)c1ccccc1)=C(Cl)Cl	inactive
CC(C)(C)C(=O)Nc1nnc(CSCc2ccccc2F)s1	4.99 µM
S=c1[nH]nc(C2CC2)n1Cc1ccccc1	3.35 µM
Cc1cc(=O)oc2c3c(cc(OCC(=O)N4CCC[C@H]4C(=O)O)c12)OC(C)(C)CC3	inactive
O=C(CSc1nnc(NC(=O)C2CC2)s1)NCc1ccccc1Cl	inactive
CCCCn1c(-c2sccc2C)n[nH]c1=S	4.73 µM
Cc1ccc(-c2c(C(=O)O)c(C(=O)O)c3n2CSC3)cc1	9.91 µM
O=Cc1c(NCc2ccc(Cl)cc2)c2ccccc2[nH]c1=O	inactive
S=c1[nH]nc(-c2ccco2)n1-c1cccc2ccccc12	inactive
O=C(O)C1Sc2[nH]c(=O)sc2C2c3cc(Cl)ccc3OC(=O)C12 (stereo not drawn)	> 59.6 µM (inactive)
S=c1[nH]nc(-c2ccc3ccccc3n2)n1-c1ccc2c(c1)OCCO2	inactive
Cc1ccc(-n2c(-c3nn(C)c(C)c3Cl)n[nH]c2=S)cc1	inactive
CCCc1cc(=O)oc2c3c(cc(OCC(=O)N[C@@H](C)C(=O)O)c12)OC(C)(C)CC3	inactive
O=C1Nc2cc(C(=O)NCCCN3CCOCC3)ccc2S/C1=C/c1ccccc1F	inactive
CC1CCCC(C)N1C(=O)CSc1nnc(NC(=O)c2cccs2)s1 (stereo not drawn)	inactive
